Consider 1 molecule from BindingDB's records for doi:10.1016/0960-894X(95)00483-A (1995).

pIC50: −log10 of the molar value.

This experiment has as its target Beta-2 adrenergic receptor (Rattus norvegicus) (UniProt P10608). The experiment in a line: Agonistic activity against Beta-2 adrenergic receptor in rat uterus.

Sequence of Beta-2 adrenergic receptor (Rattus norvegicus) (P10608 whole entry, looked up): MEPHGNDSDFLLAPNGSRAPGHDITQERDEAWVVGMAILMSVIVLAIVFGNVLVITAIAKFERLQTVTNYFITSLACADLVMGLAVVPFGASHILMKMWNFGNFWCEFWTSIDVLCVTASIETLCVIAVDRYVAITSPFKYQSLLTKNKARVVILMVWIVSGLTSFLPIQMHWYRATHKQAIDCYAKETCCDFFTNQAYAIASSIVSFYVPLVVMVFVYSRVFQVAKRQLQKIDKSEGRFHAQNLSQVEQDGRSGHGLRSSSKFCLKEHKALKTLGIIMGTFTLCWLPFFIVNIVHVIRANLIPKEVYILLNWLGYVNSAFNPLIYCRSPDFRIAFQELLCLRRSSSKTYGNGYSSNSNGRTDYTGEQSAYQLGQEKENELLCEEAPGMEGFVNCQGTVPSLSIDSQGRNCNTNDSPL

As usually defined, the pIC50 is the IC50 on a negative log10 scale, so that one unit is a factor of ten. High values mean a low IC50, low ones a high IC50. In turn, `O=C(O)C1(C(=O)O)Oc2cc3c(cc2O1)C[C@@H](NC[C@H](O)c1cccc(Cl)c1)CCC3` [FR-165914] showed a negative logarithm of the IC50 (pIC50) of under 5.00.
